Reference: ChEMBL document CHEMBL5154799, “Discovery of a Novel Stilbene Derivative as a Microtubule Targeting Agent Capable of Inducing Cell Ferroptosis” (J Med Chem, 2022)
Calls of active or inactive are those of the source. The rule behind the calls is not given here.

Legend:
A549 [1] = test: Antiproliferative activity against human A549 cells assessed as inhibition of cell proliferation incubated for 2 hrs by CCK-8 assay; assay type: functional, cell-based; conditions: DDE = dose-dependent effect
[2] = Cytotoxicity against human L02 cells assessed as reduction in cell viability; assay type: toxicity, cell-based
[3] = Toxicity in athymic nude BALB/c mouse assessed as change in body weight at 10 mg/kg, ip measured for 30 days; assay type: organism-based; conditions: in vivo, 720 h, time 30 day
[4] = Resistance index, ratio of IC50 for antiproliferative activity against human vincristine-resistant HCT-8/VCR cells to IC50 for antiproliferative activity against HCT-8 cells; assay type: functional
A549 [5] = test: Cell cycle arrest in human A549 cells assessed as downregulation of Cdc25C expression at 5 to 20 nM incubated for 24 to 48 hrs by Western blot analysis; assay type: functional, cell-based; conditions: dose 5-20 nM, time 24-48 hrs
[6] = Acute toxicity in rat assessed as median lethal dose after at 175 to 550 mg/kg for 14 days; assay type: organism-based; conditions: in vivo, dose 175-550 mg/kg, time 14 day
A549 [7] = test: Cell cycle arrest in human A549 cells assessed as increase in accumulation in G2/M phase at 5 to 20 nM by PI staining based flow cytometry analysis; assay type: functional; conditions: dose 5-20 nM, time 24-48 hrs, TDE = time-dependent effect
A549 [8] = test: Induction of apoptosis in human A549 cells assessed as cell viability pretreated with ferroptosis inhibitor ferrostatin-1 for 24 hrs followed by incubation with compound at 20 nM and measured after 48 hrs by CCK-8 assay; assay type: functional, cell-based
[9] = Oral bioavailability in ICR mouse at 10 mg/kg single administration measured for 24 hrs post treatment by LC-MS/MS analysis; assay type: ADME, organism-based; conditions: in vivo
A549 [10] = test: Induction of ferroptosis in human A549 cells assessed as accumulation of superoxide anions incubated for 24 hrs by DCFH-DA staining based fluorescence microscopy; assay type: functional, cell-based; conditions: dose 5-10 nM, DDE = dose-dependent effect
[11] = Toxicity in athymic nude BALB/c mouse assessed as body weight loss at 10 mg/kg, ip measured for 30 days; assay type: organism-based; conditions: in vivo, 720 h, time 30 day
[12] = MRT in ICR mouse at 10 mg/kg, po single administration measured for 24 hrs post treatment by LC-MS/MS analysis; assay type: ADME, organism-based; conditions: in vivo
A549 [13] = test: Antiproliferative activity against human adriamycin-resistant A549/ADR cells assessed as cell viability incubated for 48 hrs by MTT assay; assay type: functional, cell-based; conditions: A549, 48 h
A549 [14] = test: Induction of ferroptosis in human A549 cells assessed as accumulation of intracellular ROS incubated for 24 hrs by DCFH-DA staining based fluorescence microscopy; assay type: functional, cell-based; conditions: dose 5-10 nM, DDE = dose-dependent effect
[15] = target: T1, Phospholipid hydroperoxide glutathione peroxidase GPX4 (Homo sapiens) (UniProt P36969); test: Inhibition of GPX4 in human A549 cells assessed as decrease in GPX4 protein […] at 5 to 20 uM for 24 hrs by Western blotting analysis; assay type: cell-based; conditions: dose 5-20 µM
T1 sequence (whole entry): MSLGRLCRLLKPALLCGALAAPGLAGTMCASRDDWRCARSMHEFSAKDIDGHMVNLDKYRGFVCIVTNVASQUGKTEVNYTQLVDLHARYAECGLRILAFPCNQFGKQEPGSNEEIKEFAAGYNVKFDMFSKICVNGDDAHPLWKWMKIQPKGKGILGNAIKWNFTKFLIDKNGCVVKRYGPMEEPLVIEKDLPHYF

A549 [16] = test: Induction of cell death in human A549 cells assessed as increased mitochondrial membrane density at 10 nM for 12 hrs by TEM analysis; assay type: functional, cell-based
[17] = Selectivity ratio of IC50 for cytotoxicity against HLF cells assessed as reduction in cell viability to IC50 for cytotoxicity against human A549 cells assessed as reduction in cell viability; assay type: toxicity, cell-based; conditions: HLF cells versus A549 cells
[18] = Acute oral toxicity in rat assessed as survival at 17.5 to 175 mg/kg measured over 8 hours daily for 14 days; assay type: organism-based; conditions: in vivo, 336 h, dose 17.5-175 mg/kg, time 14 day
A549 [19] = test: Induction of ferroptosis in human A549 cells assessed as rupture of plasma membrane incubated for 24 hrs by CCK-8 assay; assay type: functional, cell-based
Tubulin (Homo sapiens) [20] = target: T2, Tubulin (Homo sapiens) (UniProt P68371+Q9H4B7+P0DPH7+P68366+Q13509+Q71U36+P04350+Q3ZCM7+P07437+P68363+Q9BQE3+Q6PEY2+Q13885+Q9BVA1+Q9BUF5); test: Inhibition of [3H]colchicine binding to tubulin (unknown origin) at 1.25 uM by competitive binding assay relative to control; assay type: protein-complex assay
SMMC-7721 = test: Antiproliferative activity against human SMMC-7721 cells assessed as inhibition of cell proliferation incubated for 2 hrs by CCK-8 assay; assay type: functional, cell-based; conditions: DDE = dose-dependent effect
HeLa = test: Antiproliferative activity against human HeLa cells assessed as cell viability incubated for 48 hrs by MTT assay; assay type: functional, cell-based
A549 [21] = test: Induction of apoptosis in human A549 cells assessed as early apoptotic cells at 200 nM after 24 hrs by annexin V-FITC/PI staining based flow cytometry analysis relative to control; assay type: functional
PC-3 = test: Antiproliferative activity against human PC-3 cells assessed as inhibition of cell proliferation incubated for 2 hrs by CCK-8 assay; assay type: functional, cell-based; conditions: DDE = dose-dependent effect
A549 [22] = test: Induction of ferroptosis in human A549 cells assessed as depletion of GSH levels at 10 nM upto 12 hrs; assay type: functional, cell-based
A549 [23] = test: Induction of ferroptosis in human A549 cells assessed as cell swelling incubated for 24 hrs by CCK-8 assay; assay type: functional, cell-based
A549 [24] = test: Cell cycle arrest in human A549 cells assessed as downregulation of Cdc2 expression at 5 to 20 nM incubated for 24 to 48 hrs by Western blot analysis; assay type: functional, cell-based; conditions: dose 5-20 nM, time 24-48 hrs
[25] = Cytotoxicity against HUVEC cells assessed as reduction in cell viability; assay type: toxicity, cell-based; conditions: human
A549 [26] = test: Cytotoxicity against human A549 cells assessed as reduction in cell viability; assay type: functional, cell-based
[27] = Cmax in ICR mouse at 10 mg/kg, po single administration measured for 24 hrs post treatment by LC-MS/MS analysis; assay type: ADME, organism-based; design: time 24 hrs, dose 10 mg/kg, route po; conditions: in vivo
Tubulin (Homo sapiens) [28] = target: T2, Tubulin (Homo sapiens); test: Inhibition of [3H]colchicine binding to tubulin (unknown origin) at 0.075 uM by competitive binding assay relative to control; assay type: protein-complex assay
HCT-8 = test: Antiproliferative activity against human HCT-8 cells assessed as cell viability incubated for 48 hrs by MTT assay; assay type: functional, cell-based; conditions: HCT-8, 48 h
[29] = Toxicity in human A549 cells xenografted in athymic nude BALB/c nude mouse assessed as morphological changes in spleen at 10 mg/kg, ip measured after 30 days by H and E staining based histological analysis; assay type: organism-based; conditions: in vivo, 720 h, time 30 day
[30] = Selectivity ratio of IC50 for cytotoxicity against HUVEC cells assessed as reduction in cell viability to IC50 for cytotoxicity against human A549 cells assessed as reduction in cell viability; assay type: toxicity, cell-based; conditions: HUVEC cells versus A549 cells
[31] = Toxicity in human A549 cells xenografted in athymic nude BALB/c nude mouse assessed as morphological changes in lung at 10 mg/kg, ip measured after 30 days by H and E staining based histological analysis; assay type: organism-based; conditions: in vivo, 720 h, time 30 day
Tubulin (Homo sapiens) [32] = target: T2, Tubulin (Homo sapiens); test: Induction of microtubule disruption in human A549 cells assessed as abnormal uncondensed cytoplasm at 5 to 20 uM incubated for 12 hrs by immunofluorescence based laser scanning confocal microscopic analysis; assay type: cell-based; conditions: dose 5-20 µM

C=C(c1cc(OC)c(OC)c(OC)c1)c1ccc(OC)c(O)c1NC(=O)CO
Activity (A549 [1]): Dde | IC50 [2]: 1450 nM | Activity [3]: Non-Toxic | Ratio IC50 [4]: 1.75 | Activity (A549 [5]): Active | LD50 at 336 h [6]: 327 mg/kg | Activity (A549 [7]): Tde | Activity (A549 [8]): Active | bioavailability [9]: 69.5% | Activity (A549 [10]): Dde | Activity [11]: Non-Toxic | MRT [12]: 2.57 h | IC50 (A549 [13]): 20 nM | Activity (A549 [14]): Dde | Activity [15]: Active | Activity (A549 [16]): Active | selectivity ratio [17]: 135 | Activity [18]: Non-Toxic | Activity (A549 [19]): Active | inhibition (Tubulin (Homo sapiens) [20]): 48.4% | Activity (SMMC-7721): Dde | IC50 (HeLa): 20 nM | Activity (A549 [21]): 50.36% | Activity (PC-3): Dde | Activity (A549 [22]): Active | Activity (A549 [23]): Active | Activity (A549 [24]): Active | IC50 [25]: 40 nM | IC50 (A549 [26]): 10 nM | Cmax [27]: 776 ng/mL | inhibition (Tubulin (Homo sapiens) [28]): 16.7% | IC50 (HCT-8): 40 nM | Activity [29]: Non-Toxic | selectivity ratio [30]: 4 | Activity [31]: Non-Toxic | Activity (Tubulin (Homo sapiens) [32]): Active
